Reference: ChEMBL document CHEMBL2440081 (Bioorg Med Chem, 2013)

Target: Carbonic anhydrase 13 (Homo sapiens, UniProt Q8N1Q1)
Sequence (Q8N1Q1 whole entry): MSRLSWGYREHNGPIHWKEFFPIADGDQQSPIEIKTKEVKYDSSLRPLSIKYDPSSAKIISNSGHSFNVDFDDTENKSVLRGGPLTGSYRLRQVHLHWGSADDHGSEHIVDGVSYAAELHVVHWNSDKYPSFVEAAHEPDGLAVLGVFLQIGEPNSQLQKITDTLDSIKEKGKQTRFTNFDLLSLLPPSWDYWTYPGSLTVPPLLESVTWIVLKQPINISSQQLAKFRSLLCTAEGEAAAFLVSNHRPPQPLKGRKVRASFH
Description: Inhibition of human carbonic anhydrase13 preincubated for 15 mins by stopped-flow CO2 hydration assay

SMILES: CCN[C@H]1CN(CCCOC)S(=O)(=O)c2sc(S(N)(=O)=O)cc21 [BRINZOLAMIDE]
- Ki: 11 nM
